Test results from PubChem BioAssay AID270 (DTP/NCI, 2004).
Several values for one entry are separate records, joined by “and”; a condition that tells them apart may be missing. Identical values can stand only once. Results filed as inconclusive are left out. *1 amine or outer side, *2 acyl side, *3 side chain or, on linkers, in order; H or OH if unused. Where a SMILES comes first, the peptide text is derived from it. Bridges are numbered along the chain shown (N, C = ends). Roman numbers before positions name the chains, in order. [ ]: non-standard residue; d: D form. Actinocin(1to9) = Cc1c2oc3c(C)ccc(C(=O)[*:2])c3nc-2c(C(=O)[*:1])c(N)c1=O; X1 = O=C1CC(C(=O)[*:2])N([*:1])C1; NMeV = CN[CH](C(=O)O)C(C)C; Sar = CNCC(=O)O

System: BDF1 mice, s.c. Lewis lung carcinoma, T/C %
Assay: NCI In Vivo Anticancer Drug Screen. Data for tumor model Lewis Lung Carcinoma (subcutaneous) in B6D2F1 (BDF1) mice
Method in brief: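 Tumor-bearing mice were treated with test compound, and either survival or tumor size was recorded. Values are the treated-group measurement divided by that of the vehicle-treated control group.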

With Cc1c2oc3c(C)ccc(C(=O)NC4C(=O)NC(C(C)C)C(=O)N5CCCC5C(=O)N(C)CC(=O)N(C)C(C(C)C)C(=O)OC4C)c3nc-2c(C(=O)NC2C(=O)NC(C(C)C)C(=O)N3CC(=O)CC3C(=O)N(C)CC(=O)N(C)C(C(C)C)C(=O)OC2C)c(N)c1=O (stereo not drawn) (I: TV[X1][Sar][NMeV] / II: TVP[Sar][NMeV]; ester I:1-I:C, II:1-II:C; linker I:N-II:N via Actinocin(1to9); configuration not given here) the T/C (endpoint: median survival time, dose: 3.1 micrograms/kg/injection, schedule: Q01DX009 (ip), vehicle: water, higher = longer survival) was 112 % of control, the T/C (endpoint: median survival time, dose: 6.2 micrograms/kg/injection, schedule: Q01DX009 (ip), vehicle: water, higher = longer survival) was 111 % of control and the T/C (endpoint: median survival time, dose: 9.4 micrograms/kg/injection, schedule: Q04DX003 (ip), vehicle: water, higher = longer survival) was 108 % of control. For the same molecule, the T/C (endpoint: median survival time, dose: 12.5 micrograms/kg/injection, schedule: Q01DX009 (ip), vehicle: water, higher = longer survival) was 87 % of control, the T/C (endpoint: median survival time, dose: 18.8 micrograms/kg/injection, schedule: Q04DX003 (ip), vehicle: water, higher = longer survival) was 109 % of control and the T/C (endpoint: median survival time, dose: 37.5 micrograms/kg/injection, schedule: Q04DX003 (ip), vehicle: water, higher = longer survival) was 108 % of control.
In the case of CC[n+]1ccc(Nc2ccc(NC(=O)c3ccc(Nc4cc[n+](CC)c5ccc(N)cc45)cc3)cc2)cc1, the T/C (endpoint: mean tumor weight, dose: 0.5 mg/kg/injection, schedule: Q01DX011 (ip), vehicle: saline, higher = larger tumour) is reported as 86 % of control, the T/C (endpoint: mean tumor weight, dose: 1.0 mg/kg/injection, schedule: Q01DX011 (ip), vehicle: saline, higher = larger tumour) is reported as 107 % of control and the T/C (endpoint: mean tumor weight, dose: 2.0 mg/kg/injection, schedule: Q01DX011 (ip), vehicle: saline, higher = larger tumour) is reported as 73 % of control. The T/C (endpoint: mean tumor weight, dose: 4.0 mg/kg/injection, schedule: Q01DX011 (ip), vehicle: saline, higher = larger tumour) was 33 % of control.
For NC(Cc1cc(Cl)c(O)c(Cl)c1)C(=O)O (stereo not drawn), the T/C (endpoint: median survival time, dose: 18.75 mg/kg/injection, schedule: Q01DX009 (ip), vehicle: saline, higher = longer survival) was 115 % of control, the T/C (endpoint: median survival time, dose: 37.5 mg/kg/injection, schedule: Q01DX009 (ip), vehicle: saline, higher = longer survival) was 117 % of control and the T/C (endpoint: median survival time, dose: 75.0 mg/kg/injection, schedule: Q01DX009 (ip), vehicle: saline, higher = longer survival) was 115 % of control.
For Oc1c(Cl)cc(Cl)cc1/C=N/NC(=S)Nc1cc(C(F)(F)F)cc(C(F)(F)F)c1, the T/C (endpoint: median survival time, dose: 3.13 mg/kg/injection, schedule: Q01DX009 (ip), vehicle: olive oil, sesame oil, peanut oil, higher = longer survival) was 104 % of control and the T/C (endpoint: median survival time, dose: 12.5 mg/kg/injection, schedule: Q01DX009 (ip), vehicle: olive oil, sesame oil, peanut oil, higher = longer survival) was 90 % of control.
In the case of COc1ccc(OCC(O)CN2CCN(c3ccc(Cl)cc3)CC2)cc1 (stereo not drawn), the T/C (endpoint: median survival time, dose: 12.5 mg/kg/injection, schedule: Q01DX009 (ip), vehicle: Klucel (hydroxypropylcellulose) (HPC), higher = longer survival) is reported as 90 % of control, the T/C (endpoint: median survival time, dose: 25.0 mg/kg/injection, schedule: Q01DX009 (ip), vehicle: Klucel (hydroxypropylcellulose) (HPC), higher = longer survival) is reported as 87 % of control and the T/C (endpoint: median survival time, dose: 50.0 mg/kg/injection, schedule: Q01DX009 (ip), vehicle: Klucel (hydroxypropylcellulose) (HPC), higher = longer survival) is reported as 96 % of control. The T/C (endpoint: median survival time, dose: 100.0 mg/kg/injection, schedule: Q01DX009 (ip), vehicle: Klucel (hydroxypropylcellulose) (HPC), higher = longer survival) was 90 % of control and the T/C (endpoint: median survival time, dose: 200.0 mg/kg/injection, schedule: Q01DX009 (ip), vehicle: Klucel (hydroxypropylcellulose) (HPC), higher = longer survival) was 89 % of control.
CC[C@@]1(O)C(=O)OCc2c1cc1n(c2=O)Cc2cc3c(OC)cccc3nc2-1 was tested, and the T/C (endpoint: median survival time, dose: 0.12 mg/kg/injection, schedule: Q01DX009 (ip), vehicle: Klucel (hydroxypropylcellulose) (HPC), higher = longer survival) was 119 % of control, the T/C (endpoint: median survival time, dose: 0.25 mg/kg/injection, schedule: Q01DX009 (ip), vehicle: Klucel (hydroxypropylcellulose) (HPC), higher = longer survival) was 197 % of control and the T/C (endpoint: median survival time, dose: 0.51 mg/kg/injection, schedule: Q01DX009 (ip), vehicle: Klucel (hydroxypropylcellulose) (HPC), higher = longer survival) was 198 % of control. The T/C (endpoint: median survival time, dose: 1.0 mg/kg/injection, schedule: Q01DX009 (ip), vehicle: Klucel (hydroxypropylcellulose) (HPC), higher = longer survival) was 198 % of control.
NC(=O)c1ncn(C2OC(CO)C(O)C2O)n1 (stereo not drawn) was tested, and the T/C (endpoint: median survival time, dose: 20.0 mg/kg/injection, schedule: Q01DX009 (ip), vehicle: saline, higher = longer survival) was 100 % of control, the T/C (endpoint: median survival time, dose: 40.0 mg/kg/injection, schedule: Q01DX009 (ip), vehicle: saline, higher = longer survival) was 93 % of control and 107 % of control and the T/C (endpoint: median survival time, dose: 80.0 mg/kg/injection, schedule: Q01DX009 (ip), vehicle: saline, higher = longer survival) was 97 % of control and 107 % of control. The T/C (endpoint: median survival time, dose: 160.0 mg/kg/injection, schedule: Q01DX009 (ip), vehicle: saline, higher = longer survival) was 118 % of control.
In the case of CC1=C2C(=C[C@@](C)(CO)[C@@H]2O)C(=O)[C@](C)(O)C12CC2, the T/C (endpoint: mean tumor weight, dose: 0.05 mg/kg/injection, schedule: Q01DX011 (ip), vehicle: saline, higher = larger tumour) is reported as 113 % of control, the T/C (endpoint: mean tumor weight, dose: 0.1 mg/kg/injection, schedule: Q01DX011 (ip), vehicle: saline, higher = larger tumour) is reported as 102 % of control and the T/C (endpoint: mean tumor weight, dose: 0.2 mg/kg/injection, schedule: Q01DX011 (ip), vehicle: saline, higher = larger tumour) is reported as 92 % of control. The T/C (endpoint: mean tumor weight, dose: 0.4 mg/kg/injection, schedule: Q01DX011 (ip), vehicle: saline, higher = larger tumour) was 19 % of control and 41 % of control and the T/C (endpoint: mean tumor weight, dose: 0.6 mg/kg/injection, schedule: Q01DX011 (ip), vehicle: saline, higher = larger tumour) was 20 % of control.
